Source: patent US10058533B2, “Pharmaceutical composition containing Ginkgolide B and Xa factor inhibitor, preparation method thereof and use thereof” (CHENGDU BAIYU PHARMACEUTICAL CO., LTD, priority 2014, dated 2018)

Legend:
[1] = test system: coagulation function (aPTT); assay: aPTT of coagulation function, rabbit wound-limb deep venous thrombosis forming model; type: in vivo; conditions: for aPPT: 5 mg/kg i.g., x ± SD
Method: (§1) Eight were taken as control group and the rest were treated by a striking device. Striking area was a round surface with the diameter of 1.5 cm, the wounding energy was calculated according to Ep=mgh, and the energy of each striking of the iron rod is 7.5 J.
(§2) Specifically: the rabbit was anesthetized by intravenous injection of 3% pentobarbital sodium at ear edge with the dose of 1 ml/kg. The rabbit was kept laying down at right side prostrate position and the left thigh was set on the striking platform. Found the trochanter of the left femur and set the striking head attached to area from the trochanter to the 1.5 cm below. The self-made striking device was used for striking the outer side of the thigh near-end, and the plaster was used for fixing the left limb on the hip/knee-bending area. When the plaster bandage was applied and the right hip was examined to move freely, the rabbit was kept to lay down until solidification. After the model establishment, the animal was allowed to drink water normally and was fed with granular food. No anticoagulant or antibiotic was used.
(§3) Animals were grouped after modeling. The drug was fed according to table 4 via oral gavage, once a day for 7 days continuously.
(§4) At 0.5, 1.0, 2.0, 3.0 and 4.0 h after the first administration, blood was taken from ear central artery. Plasma was separated and aPPT, PT and the anti-factor Xa activity were determined on an automatic coagulation detector.

factor Xa [2] = assay: Anti-coagulation factor Xa activity in vitro (chromogenic substrate assay); type: biochemical, rabbit
Method: A chromogenic substrate assay was adopted, and plasma anti-Xa activity was determined on a microplate reader according to a kit specification and reference documents.

factor Xa [3] = assay: Plasma anti-factor Xa activity, rabbit wound-limb deep venous thrombosis forming model; type: in vivo
Method: as §1, §2, §3, §4

[4] = test system: PAF (Platelet activating factor); assay: Plasma PAF content by ELISA, rabbit wound-limb deep venous thrombosis forming model; type: in vivo; conditions: for PAF content (x ± SD): rabbit wound-limb deep venous thrombosis model, *p<0.05, **p<0.01, ***p<0.001 vs model group
Method: as §2, with “Eight were taken as control group and the rest were treated by a striking device. […] Specifically:” for “Specifically:”, “Found the trochanter of the left femur and set the striking head attached to area from the trochanter to the 1.5 cm below.” left out, “used. Animals were grouped after modeling. The drug was fed according to table 4 via oral gavage, once a day for 7 days continuously. At 0.5, 1.0, 2.0, 3.0 and 4.0 h after the first administration, blood was taken from ear central artery. Plasma was separated and the content of PAF was determined by ELISA.” for “used.”

[5] = test system: coagulation function (PT); assay: PT of coagulation function, rabbit wound-limb deep venous thrombosis forming model; type: in vivo; conditions: 5 mg/kg i.g., x ± SD
Method: as §1, §2, §3, §4

[6] = in vivo; cited from earlier work
[7] = test system: venous thromboembolism (VTE); conditions: cited from earlier work
[8] = plasma, 5 mg/kg i.g., 0.5 h after administration, x ± SD
[9] = plasma, 5 mg/kg i.g., 1 h after administration, x ± SD
[10] = plasma, 5 mg/kg i.g., 2 h after administration, x ± SD
[11] = plasma, 5 mg/kg i.g., 3 h after administration, x ± SD
[12] = plasma, 5 mg/kg i.g., 4 h after administration, x ± SD

Compound | aPPT ([1]; 0.5 h after administration) [s] | aPPT ([1]; 1 h after administration) [s] | aPPT ([1]; 2 h after administration) [s] | aPPT ([1]; 3 h after administration) [s] | aPPT ([1]; 4 h after administration) [s] | aPTT compared with model group ([1]; 1 h after administration) | anti-factor Xa activity (factor Xa [2]) [IU/ml] | anti-factor Xa activity (factor Xa [3]; [8]) [IU/ml] | anti-factor Xa activity (factor Xa [3]; [9]) [IU/ml] | anti-factor Xa activity (factor Xa [3]; [10]) [IU/ml] | anti-factor Xa activity (factor Xa [3]; [11]) [IU/ml] | anti-factor Xa activity (factor Xa [3]; [12]) [IU/ml] | PAF content (x ± SD) ([4]; 1 h after administration) [ng/L] | PAF content (x ± SD) ([4]; 3 h after administration) [ng/L] | PAF content compared to model group ([4]; 4 h after administration) | PT ([5]; 0.5 h after administration) [s] | PT ([5]; 1 h after administration) [s] | PT ([5]; 2 h after administration) [s] | PT ([5]; 3 h after administration) [s] | PT ([5]; 4 h after administration) [s] | further results
O=C(NC[C@H]1CN(c2ccc(N3CCOCC3=O)cc2)C(=O)O1)c1ccc(Cl)s1 [Rivaroxaban] | 27.89 ± 7.97 | 32.01 ± 9.31 | 34.63 ± 5.57 | 35.92 ± 10.85 | 29.20 ± 6.32 | obviously extended | 0.54 | 0.37 ± 0.09 | 0.31 ± 0.13 | 0.18 ± 0.05 | 1.32 ± 0.16 | 1.38 ± 0.18 | 1484.29 ± 129.00 | 1671.43 ± 236.95 | extremely significant decrease | 6.76 ± 0.30 | 7.20 ± 0.96 | 6.90 ± 0.34 | 6.81 ± 0.22 | 6.70 ± 0.33 | anti-factor Xa activity (factor Xa [3]; 0.5 h-4 h after administration): extremely significant difference; PAF content (x ± SD) ([4]; 0.5 h after administration): 886.43 ± 314.24 ng/L
Otamixaban | 21.67 ± 9.42 | 25.71 ± 7.68 | 25.61 ± 6.75 | 34.62 ± 7.59 | 30.16 ± 9.37 | no obvious extension | 1.03 | 0.19 ± 0.04 | 0.25 ± 0.10 | 0.26 ± 0.14 | 1.25 ± 0.12 | 1.24 ± 0.06 | 1526.56 ± 212.31 | 1745.52 ± 356.26 | decreased significantly | 6.58 ± 0.45 | 6.74 ± 0.26 | 6.52 ± 0.43 | 6.62 ± 0.42 | 7.82 ± 0.31 | excretion through kidney [6]: less than 25%; PAF content (x ± SD) ([4]; 2 h after administration): 1123.45 ± 224.51 ng/L
CN(C)Cc1nccn1-c1ccc(NC(=O)c2cc(C(F)(F)F)nn2-c2ccc3onc(N)c3c2)c(F)c1 [Razaxaban] | 20.13 ± 6.74 | 26.23 ± 8.43 | 22.33 ± 4.46 | 35.75 ± 8.68 | 29.65 ± 9.72 | no obvious extension | 0.86 | 0.20 ± 0.14 | 0.18 ± 0.05 | 0.23 ± 0.08 | 1.31 ± 0.30 | 1.32 ± 0.09 | 1501.29 ± 131.10 | 1641.26 ± 242.32 | decreased significantly | 6.71 ± 0.25 | 7.41 ± 0.51 | 6.47 ± 0.25 | 6.47 ± 0.41 | 6.70 ± 0.25 | VTE occurrence rate compared with enoxaparin ([7]; patients taking Razaxaban 25 mg, total knee replacement): significantly lower; occurrence rate of large bleeding compared with enoxaparin ([7]; patients taking Razaxaban 25 mg): similar; large bleeding compared with Enoxaparin ([7]; patients taking Razaxaban 50-100 mg): more likely to have large bleeding; PAF content (x ± SD) ([4]; 0.5 h after administration): 889.42 ± 326.32 ng/L
CN1CCc2nc(C(=O)N[C@@H]3C[C@@H](C(=O)N(C)C)CC[C@@H]3NC(=O)C(=O)Nc3ccc(Cl)cn3)sc2C1 [Edoxaban] | 26.77 ± 7.65 | 25.01 ± 9.52 | 33.63 ± 5.45 | 36.47 ± 9.12 | 27.20 ± 6.31 | no obvious extension | – | – | – | – | – | – | 1236.72 ± 301.62 | 1623.43 ± 256.35 | – | 6.73 ± 0.15 | 6.14 ± 0.26 | 6.28 ± 0.42 | 6.45 ± 0.65 | 6.42 ± 0.34 | –
COc1ccc(-n2nc(C(N)=O)c3c2C(=O)N(c2ccc(N4CCCCC4=O)cc2)CC3)cc1 [Apixaban] | 19.05 ± 6.17 | 24.26 ± 7.89 | 23.94 ± 5.49 | 31.71 ± 8.53 | 29.21 ± 11.35 | no obvious extension | 1.07 | 0.16 ± 0.10 | 0.26 ± 0.04 | 0.25 ± 0.10 | 1.22 ± 0.22 | 1.12 ± 0.15 | 1543.57 ± 239.95 | 1865.71 ± 371.23 | extremely significant decrease | – | – | – | – | – | anti-factor Xa activity (factor Xa [3]; 0.5 h-4 h after administration): extremely significant difference; PAF content (x ± SD) ([4]; 2 h after administration): 1117.86 ± 231.52 ng/L
CC1C(=O)OC2C(O)C34C5CC(C(C)(C)C)C36C(OC(=O)C6O)OC4(C(=O)O5)C12O (centres unmarked) [Ginkgolide B] | 25.89 ± 8.15 | 30.65 ± 6.79 | 25.83 ± 5.96 | 34.30 ± 6.56 | 31.92 ± 7.77 | obviously extended | 0.57 | 0.08 ± 0.07 | 0.10 ± 0.10 | 0.35 ± 0.22 | 0.74 ± 0.15 | 0.65 ± 0.12 | 1255.71 ± 300.73 | 1656.43 ± 259.36 | – | 6.76 ± 0.32 | 6.79 ± 0.27 | 6.75 ± 0.36 | 6.72 ± 0.24 | 6.68 ± 0.23 | anti-factor Xa activity (factor Xa [3]; 0.5 h-4 h after administration): increased with time; PAF content compared to model group ([4]; 2 h after administration): decreased significantly
